According to patent US10458911B2, “Method for searching candidate material for anti-cancer drug using localized surface plasmon resonance” (KOREA UNIVERSITY RESEARCH AND BUSINESS FOUNDATION, priority 2015, dated 2019):

Experiments:
[1] = target: T1, STAT3 protein (Homo sapiens, UniProt P40763); assay: Single nanoplasmonic biosensor (LSPR shift), inhibition of STAT3 dimerization with recombinant STAT3; type: biochemical; parameters: purchased Sigma Aldrich (Korea)
Procedure: Individual amino-modified AuNPs, ˜50 nm AuNPs, were immobilized onto a glutaraldehyde coated coverslip slide (22×40×0.1 mm) by dropping 10 μL of the dilute amino-modified AuNP solution (FIG. 2). The glass slide was mounted to an RC-30HV closed-bath imaging chamber (Warner Instruments, USA) to visualize the AuNPs after the addition of adsorbates and reactants. The imaging chamber (Warner Instruments, USA) was subsequently inserted onto the holder of the darkfield microscope (Eclipse TE2000-U, Nikon, Japan), and the fluidic flow was set at 100 μL min^−1 by connection to a syringe pump (Harvard Apparatus).
Subsequently, the phosphorylation and the dimerization of STAT3 were conducted as follows. In the first step, after ˜50 nm AuNPs were immobilized onto a coverslip slide, all unbound AuNPs and contaminants were removed, and the surface of the amino-modified AuNPs was cleaned by injecting nuclease-free water for 1 h. […]
(§1) The changes in the LSPR spectra of the single amino-modified AuNPs in response to STAT3 protein conjugation, STAT3 phosphorylation, dimerization or inhibition of STAT3 dimerization were recorded. […] The wavelength shift (Δλmax) was calculated using the following formula: λmax (after reaction)−λmax (before reaction).

[2] = target: T2, STAT3 protein extracted from MCF-7 cells (Homo sapiens, UniProt P40763); assay: Single nanoplasmonic biosensor (LSPR shift), dimerization step with STAT3 extracted from MCF-7 cells treated with STA-21; type: cell-based
T2 construct: Phosphorylated STAT3 protein (10 μg mL^−1) extracted from Michigan Cancer Foundation-7 (MCF-7) cells was used; endogenous in cells; host or cells: MCF-7
T2 sequence (P40763 2-770 limits assumed): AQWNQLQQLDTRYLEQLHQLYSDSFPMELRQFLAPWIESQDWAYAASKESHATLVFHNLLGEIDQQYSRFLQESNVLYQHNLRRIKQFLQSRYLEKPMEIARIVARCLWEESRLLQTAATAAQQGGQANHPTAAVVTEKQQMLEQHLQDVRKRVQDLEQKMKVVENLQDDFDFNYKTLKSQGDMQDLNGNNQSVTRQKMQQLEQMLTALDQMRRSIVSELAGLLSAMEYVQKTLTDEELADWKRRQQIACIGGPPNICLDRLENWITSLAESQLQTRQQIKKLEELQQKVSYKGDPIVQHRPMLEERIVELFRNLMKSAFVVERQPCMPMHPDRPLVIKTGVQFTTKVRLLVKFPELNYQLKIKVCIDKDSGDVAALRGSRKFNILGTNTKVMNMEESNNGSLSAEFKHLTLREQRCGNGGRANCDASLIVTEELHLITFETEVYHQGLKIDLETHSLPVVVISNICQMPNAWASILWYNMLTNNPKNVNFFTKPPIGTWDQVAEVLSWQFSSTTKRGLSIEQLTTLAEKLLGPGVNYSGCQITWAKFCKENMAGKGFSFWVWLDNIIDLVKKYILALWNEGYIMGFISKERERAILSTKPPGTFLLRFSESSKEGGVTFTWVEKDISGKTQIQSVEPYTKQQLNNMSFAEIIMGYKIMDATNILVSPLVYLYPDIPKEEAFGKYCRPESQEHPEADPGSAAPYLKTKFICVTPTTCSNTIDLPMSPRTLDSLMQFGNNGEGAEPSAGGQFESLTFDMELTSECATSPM
Procedure: Subsequently, the phosphorylation and the dimerization of STAT3 were conducted as follows. In the first step, after ˜50 nm AuNPs were immobilized onto a coverslip slide, all unbound AuNPs and contaminants were removed, and the surface of the amino-modified AuNPs was cleaned by injecting nuclease-free water for 1 h. In the second step, after STAT3 protein was conjugated to the AuNPs, 300 μL, of the STAT3 solution ([…] in 50 mM Tris-HCl buffer, pH 7.4, containing 150 mM NaCl and 25% glycerol) containing STAT3 protein (10 μg mL^−1) was injected into the immobilized AuNPs and incubated overnight. […]
as §1
The MCF-7 cells, human breast tumor cell lines, were cultured in Dulbecco's modified Eagle's medium (DMEM, Thermo Scientific, USA) containing 10% (v/v) fetal bovine serum (FBS, Thermo Scientific, USA) and 3% penicillin/streptomycin (Thermo Scientific, USA) at 37° C. in a humidified atmosphere containing 5% CO2. The inocula of cells were determined using a hemacytometer with a vital dye, trypan blue. […]

[3] = target: T1, STAT3 protein; assay: Native polyacrylamide gel electrophoresis of STAT3 dimerization and its inhibition; type: biochemical; conditions: lane 4, with STA-21; 167 kDa dimer without inhibitor (lane 3); FIG. 5A
From the text: Analysis of STAT3 dimerization and inhibition of STAT3 dimerization was confirmed by native polyacrylamide gel electrophoresis on 6% native gels using a standard protocol (Y. Jv, B. Li and R. Cao, Chem. Commun., 2010, 46, 80178019). The samples which formed the dimerization and inhibited the dimerization were loaded into the 6% native gel running at a voltage of 10 V cm^−1.

T1 sequence (P40763 whole entry): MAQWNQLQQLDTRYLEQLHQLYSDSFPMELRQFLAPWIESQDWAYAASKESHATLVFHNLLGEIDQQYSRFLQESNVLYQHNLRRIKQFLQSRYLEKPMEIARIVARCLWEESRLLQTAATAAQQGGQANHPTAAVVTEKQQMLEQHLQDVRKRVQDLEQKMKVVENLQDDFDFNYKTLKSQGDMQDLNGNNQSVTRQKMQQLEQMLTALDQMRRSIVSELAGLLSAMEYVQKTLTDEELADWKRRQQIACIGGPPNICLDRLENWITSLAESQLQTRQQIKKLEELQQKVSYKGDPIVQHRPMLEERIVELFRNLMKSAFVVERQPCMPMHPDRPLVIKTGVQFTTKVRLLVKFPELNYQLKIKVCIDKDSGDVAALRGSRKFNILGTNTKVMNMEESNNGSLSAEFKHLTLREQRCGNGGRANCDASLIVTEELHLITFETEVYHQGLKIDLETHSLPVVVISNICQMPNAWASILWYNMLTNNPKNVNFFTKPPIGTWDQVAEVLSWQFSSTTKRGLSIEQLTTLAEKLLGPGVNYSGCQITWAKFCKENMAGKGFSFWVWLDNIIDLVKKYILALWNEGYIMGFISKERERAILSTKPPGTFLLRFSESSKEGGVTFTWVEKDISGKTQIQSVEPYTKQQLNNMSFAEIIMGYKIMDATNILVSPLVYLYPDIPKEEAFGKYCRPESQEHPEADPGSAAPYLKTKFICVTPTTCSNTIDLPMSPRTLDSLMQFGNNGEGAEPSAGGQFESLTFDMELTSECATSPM

red shift of the LSPR λmax in the dimerization step in the presence of inhibitor ([1]; STA-21 1 μM, recombinant STAT3 protein, 9.00 nm in the absence, FIG. 4C): 2.65 nm
STAT3 dimerization inhibited ([1]; STA-21 at 10^3 nM, recombinant STAT3): 100%
STAT3 dimer formation ([2]; STAT3 from MCF-7 cells treated with STA-21): did not form a STAT3 dimer
red shift of the LSPR λmax for the dimerization step in the presence of inhibitor ([2]; STAT3 from MCF-7 cells treated with STA-21 for 24 h, 10.00 nm in the absence, FIG. 4C): 3.34 nm
STAT3 species observed by Native PAGE [3]: 90 kDa monomer
SMILES: C[C@@H]1CC(=O)c2c(ccc3c2C(=O)c2cccc(O)c2C3=O)C1 [STA-21]
